The values below come from ChEMBL document CHEMBL3632547, “Discovery of 3,5-substituted 6-azaindazoles as potent pan-Pim inhibitors” (Bioorg Med Chem Lett, 2015).

In series [1] the target is Serine/threonine-protein kinase pim-2 (Homo sapiens, UniProt Q9P1W9).
In series [2] the target is Serine/threonine-protein kinase pim-3 (Homo sapiens, UniProt Q86V86).
The target of series [3] is Serine/threonine-protein kinase pim-1 (Homo sapiens, UniProt P11309).
Another series deals with BaF3. The experiment in a line: Ratio of IC50 for wild type interleukin-3 dependent mouse BA/F3 cells to IC50 for interleukin-3 independent mouse BA/F3 cells expressing PIM1. The series is classed as functional.
Series [4] in a line: Oral bioavailability in rat. The series is classed as ADME, organism-based. The following applies: in vivo.
Series [5] can be described thus: Cytotoxicity against wild type interleukin-3 dependent mouse BA/F3 cells after 72 hrs by CellTiter-Glo assay. The series is classed as functional, cell-based. The following applies: BaF3, 72 h. (In ATP-based viability assays light output follows the ATP content of the culture.)
Series [6] in a line: Intrinsic clearance from rat liver microsomes. The conditions noted are these: read-out: CLH. The series is classed as ADME.
The nature of series [7]: Apparent permeability from apical to basolateral side in MDCK cells. It is filed as ADME, cell-based, Canis lupus familiaris. The conditions noted are these: dog.
A short description of series [8]: Plasma clearance in rat. The series is classed as ADME, organism-based.
Series [9] is described as follows: Cytotoxicity against interleukin-3 independent mouse BA/F3 cells expressing PIM1 after 72 hrs by CellTiter-Glo assay. It is filed as functional, cell-based. The following applies: BaF3, 72 h.
A short description of series [10]: Cytotoxicity against human MM1S cells after 72 hrs by CellTiter-Glo assay. The series is classed as functional, cell-based. The following applies: MM1.S.
Series [11] is described as follows: Plasma protein binding in rat. It is filed as ADME, cell-free. The following applies: read-out: PPB (converted).
Series [12] in a line: Efflux ratio of apparent permeability from basolateral to apical over apical to basolateral side in MDCK cells. The series is classed as ADME, cell-based, Canis lupus familiaris. The following applies: dog.

Serine/threonine-protein kinase pim-2, sequence (Q9P1W9 whole entry): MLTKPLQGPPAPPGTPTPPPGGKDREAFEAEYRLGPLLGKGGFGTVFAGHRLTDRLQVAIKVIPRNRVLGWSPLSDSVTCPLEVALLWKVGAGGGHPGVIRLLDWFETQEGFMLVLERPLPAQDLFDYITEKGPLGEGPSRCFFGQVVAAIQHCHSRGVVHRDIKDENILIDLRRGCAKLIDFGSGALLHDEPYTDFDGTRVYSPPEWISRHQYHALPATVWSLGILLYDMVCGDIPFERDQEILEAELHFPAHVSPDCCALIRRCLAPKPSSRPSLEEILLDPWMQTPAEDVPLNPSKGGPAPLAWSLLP
Serine/threonine-protein kinase pim-1, sequence (P11309 whole entry): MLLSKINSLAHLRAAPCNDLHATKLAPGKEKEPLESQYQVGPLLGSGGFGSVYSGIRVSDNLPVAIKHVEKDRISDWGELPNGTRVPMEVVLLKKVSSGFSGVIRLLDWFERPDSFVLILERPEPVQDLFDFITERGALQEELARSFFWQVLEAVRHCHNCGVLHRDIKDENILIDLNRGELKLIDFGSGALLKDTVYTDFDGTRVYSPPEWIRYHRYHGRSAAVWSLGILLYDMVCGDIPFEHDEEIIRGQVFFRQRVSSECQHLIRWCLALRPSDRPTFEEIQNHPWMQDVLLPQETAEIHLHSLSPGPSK

As for `Cn1cc(-c2cc3c(-c4cccc(O[C@@H]5CCCNC5)n4)n[nH]c3cn2)cn1`, the Ki in series [1] came out at 6.2 nM; in [2], 0.16 nM.

As to `Cn1cc(-c2cc3c(-c4cccc(N5CCC[C@@H](N)C5)n4)n[nH]c3cn2)cn1`, the inhibitory constant (Ki) in series [1] was found to be 0.72 nM; in [2], 0.021 nM.

Turning to `Cn1cc(-c2cc3c(-c4cccc(N5CC[C@@H](N)C5)n4)n[nH]c3cn2)cn1`, the Ki in series [3] worked out at 0.035 nM; in series [1], 0.43 nM; in [2] it was 0.015 nM.

For the compound `Cn1cc(-c2cc3c(-c4cccc(N5CCC[C@H](N)C5)n4)n[nH]c3cn2)cn1`, the values for the inhibitory constant (Ki) in series [1] and in series [2] were 0.26 nM and 0.015 nM, respectively.

With `Cn1cc(-c2cc3c(-c4cccc(N5CCC[C@@H](N)C5)c4)n[nH]c3cn2)cn1`, the Ki stood at 1.25 nM in [1] and 0.29 nM in series [2].

On to `Cc1ccc(-c2n[nH]c3cnc(-c4cnn(C)c4)cc23)nc1N1CCC[C@H](N)C1`, for which the figures for the inhibitory constant (Ki) in [1] and in series [2] were 0.088 nM and 0.006 nM, respectively.

For the compound `CCn1cc(-c2cc3c(-c4cccc(N5CCNCC5)n4)n[nH]c3cn2)cn1`, the “Ratio IC50” value in the series on BaF3 turned out to be 70. The same compound displayed a bioavailability in series [4] of 1%. In addition, the IC50 in [5] came to 5400 nM; in [9], 77 nM; in series [10], 640 nM. Also, the CLint scaled in series [6] amounted to 150 mL/min/kg. For the same compound, the Papp A→B in series [7] is 0.5 ×10⁻⁶ cm/s. In series [8], this compound yielded a clearance of 14 mL/min/kg. The fraction unbound in [11] was 0.022. The figures for the Ki in series [1] and in series [2] were 0.473 nM and 0.041 nM, respectively. Moreover, the efflux ratio in series [12] was 51.

On to `c1cc(-c2n[nH]c3cnc(C4CCCO4)cc23)nc(N2CCNCC2)c1` (stereo unspecified), for which the figures for the inhibitory constant (Ki) in series [3] and in [1] were 8.5 nM and 82 nM, respectively.

On to `c1cc(-c2n[nH]c3cnc(C4CCCOC4)cc23)nc(N2CCNCC2)c1` (stereo unspecified), for which the figures for the Ki in series [1] and in [2] were 26 nM and 1 nM, respectively.

With `O=C1CN(c2cc3c(-c4cccc(N5CCNCC5)n4)n[nH]c3cn2)CCN1`, the values for the Ki in series [1] and in series [2] were 17 nM and 1.4 nM, respectively.

For `c1cc(-c2n[nH]c3cnc(N4CCOCC4)cc23)nc(N2CCNCC2)c1`, the Ki in series [1] was 14 nM; in [2] it was 4.4 nM.

On to `Cn1cc(-c2cc3c(-c4ccccn4)n[nH]c3cn2)cn1`, for which the Ki in series [1] is 48 nM; in [2], 3.7 nM.

Regarding `Cn1cc(-c2cc3c(-c4cccc(N5CCCNCC5)n4)n[nH]c3cn2)cn1`, the results for the Ki in series [3], in series [1] and in [2] were 0.02 nM, 0.17 nM and 0.013 nM, respectively.

As for `Cn1cc(-c2cc3c(-c4cccc(C5CCNCC5)n4)n[nH]c3cn2)cn1`, the Ki in [1] is 2.2 nM; in series [2] it was 0.12 nM.

On to `CCn1cncc(-c2cc3c(-c4cccc(N5CCNCC5)n4)n[nH]c3cn2)c1=O`, for which the Ki amounted to 0.145 nM in series [1] and 0.07 nM in series [2].

For `Cn1cc(-c2cc3c(-c4cccc(N5CCNCC5)n4)n[nH]c3cn2)cn1`, the results for the inhibitory constant (Ki) in series [1] and in [2] were 0.58 nM and 0.017 nM, respectively.

Regarding `N#CCn1cc(-c2cc3c(-c4cccc(N5CCNCC5)n4)n[nH]c3cn2)cn1`, the Ki in series [1] was 0.127 nM; in series [2] it was 0.013 nM.

With `c1cc(-c2n[nH]c3cnc(-c4cnn(CC5CC5)c4)cc23)nc(N2CCNCC2)c1`, the Ki in [1] was 0.253 nM; in [2] it was 0.016 nM.

On to `c1cc(-c2n[nH]c3cnc(-n4ccnc4)cc23)nc(N2CCNCC2)c1`, for which the inhibition constant (Ki) in series [1] was determined as 5.4 nM; in series [2], 0.65 nM.

As to `NC(=O)Cc1cc2c(-c3cccc(N4CCNCC4)n3)n[nH]c2cn1`, the Ki in series [1] amounted to 1100 nM; in [2], 115 nM.

Consider `NC(=O)Nc1cc2c(-c3cccc(N4CCNCC4)n3)n[nH]c2cn1`, for which the values for the Ki in [1] and in series [2] were 1.1 nM and 0.68 nM, respectively.

In the case of `CN1C(=O)CN(c2cc3c(-c4cccc(N5CCNCC5)n4)n[nH]c3cn2)C1=O`, the Ki in [1] was determined as 33 nM; in series [2] it was 3.3 nM.

For the compound `Fc1ccccc1-c1n[nH]c2cnc(-c3cnccc3O[C@@H]3CCCNC3)cc12`, the Ki in series [3] stood at 3.4 nM; in series [1], 1.7 nM; in series [2] it was 0.11 nM.

Regarding `Cc1n[nH]c2cnc(-c3cncc(N4CCC(N)CC4)n3)cc12`, the Ki in series [3] is 6 nM; in series [1], 170 nM; in [2], 9 nM.

Consider `NC1CCN(c2cncc(-c3cc4c(-c5ccccc5F)n[nH]c4cn3)n2)CC1`, for which the results for the Ki in series [3], in [1] and in [2] were 0.1 nM, 3 nM and 0.1 nM, respectively.

With `NCCNc1cccc(-c2n[nH]c3cnc(-c4cccnc4)cc23)n1`, the Ki in series [3] is 0.3 nM; in [1] it was 3 nM; in [2], 0.2 nM.

For the compound `c1cncc(-c2cc3c(-c4cccc(N5CCNCC5)n4)n[nH]c3cn2)c1`, the Ki in [3] stood at 0.04 nM; in series [1], 0.5 nM; in [2], 0.01 nM.

In the case of `Cc1cncc(-c2cc3c(-c4cccc(N5CCNCC5)n4)n[nH]c3cn2)c1`, the Ki was found to be 0.3 nM in series [1] and 0.037 nM in series [2].

As for `Cc1cncc(-c2cc3c(-c4cccc(N5CCNCC5)n4)n[nH]c3cn2)n1`, the inhibition constant Ki in series [1] was found to be 0.049 nM; in series [2] it was 0.01 nM.

With `c1cncc(-c2cc3cn[nH]c3cn2)c1`, the Ki in [3] is 1300 nM; in [1], 6000 nM; in series [2], 1800 nM.

On to `O=C(Nc1cn[nH]c1)c1cccnc1`, for which the Ki worked out at 3300 nM in series [3], 15000 nM in [1] and 2900 nM in series [2].

As to `Cc1n[nH]c2cnc(-c3cccnc3)cc12`, the Ki in series [3] is 200 nM; in series [1] it was 800 nM; in series [2], 300 nM.

As to `Cc1c[nH]c2cnc(-c3cccnc3)cc12`, the Ki in series [3] came to 800 nM; in [1], 3900 nM; in series [2] it was 1500 nM.

Regarding `Cc1n[nH]c2cnc(-c3cn[nH]c3)cc12`, the Ki in series [1] came to 900 nM; in series [2] it was 400 nM.

With `Cc1n[nH]c2ccc(-c3cn[nH]c3)cc12`, the Ki in [3] was found to be 3200 nM; in [1], 2700 nM; in series [2], 3100 nM.

As to `c1ccc(-c2n[nH]c3cnc(-c4cccnc4)cc23)cc1`, the Ki in [3] is 10 nM; in series [1] it was 50 nM; in [2] it was 5 nM.

For the compound `c1ccc(-c2n[nH]c3cnc(-c4cccnc4)cc23)nc1`, the results for the Ki in series [3] and in [1] were 10 nM and 70 nM, respectively.

For `Cc1n[nH]c2cnc(-c3cnccc3N3CCC[C@H](N)C3)cc12`, the Ki in series [1] is 8300 nM; in series [2], 5000 nM.

For `N[C@H]1CCCN(c2ccncc2-c2cc3c(-c4ccccc4F)n[nH]c3cn2)C1`, the values for the Ki in series [1] and in [2] were 35 nM and 6 nM, respectively.

Broadly, the Ki is a measure of affinity in units of concentration, obtained from inhibition or displacement. Low readings indicate a stronger hold on the target, high ones a looser hold on the target. As a reminder, the bioavailability is dose-corrected exposure relative to a reference, in per cent. Higher therefore signals much systemic uptake. The IC50 is the concentration at which inhibition is half-maximal. Low readings indicate inhibition by little substance, high ones a need for much substance. The Papp A→B is how fast a substance crosses the layer from the apical side. As usually defined, the clearance is the rate of elimination divided by the concentration. A lower clearance goes with a low capacity for elimination. What is called efflux ratio is a quotient of directional permeabilities that is used to spot active efflux.
